Test: gradient 5% acetonitrile 3 min, to 50% in 2 min, to 85% in 15 min, held 3 min, 100 µL/min
Conditions: column: Zorbax Extend-C18 2.1 x 50 mm; eluents: water / acetonitrile, 0.1% formic acid
Procedure, shortened: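 Using water and acetonitrile that each contained 0.1% formic acid, mixtures of ~100 pure standards were separated at 100 μL/min on a Zorbax Extend-C18 column (2.1 × 50 mm, 1.8 μm). The HPLC fed a quadrupole time-of-flight mass spectrometer working in positive and negative ionization mode, with dead and dwell volumes of 40 μL and 900 μL. Data were acquired over 3 months. Retention time was read from computationally picked adduct peaks after manual inspection of each.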

Compound	RP-LC retention time
CN(C)c1cccc(C(=O)Nc2cc(-c3ccccn3)no2)c1	776 s
Cc1cc(NC2CCCCC2)nc(-n2nc(C)cc2C)n1	850 s
CC(=O)c1cccc(NC(=O)N2CCN(Cc3ccccc3)c3ncccc32)c1	732 s
Cc1cc(C)cc(C(=O)N2CCCC(C(=O)NCCC3=CCCCC3)C2)c1 (stereo not drawn)	980 s
CCN1C(=O)c2c(C(=O)NCc3ccc(F)cc3)ncn2CC1(C)C(=O)NC1CCCC1 (stereo not drawn)	764 s
CC1CCN(S(=O)(=O)c2ccc(-c3nnc(C(=O)NC4CCCCCC4)o3)cc2)CC1	1170 s
Cc1[nH]c(C(=O)N2CCC(CC(=O)NCc3cccc(F)c3)CC2)c(C)c1C(=O)OC(C)C	839 s
O=C(NCCc1ccccc1)C1CN(S(=O)(=O)c2cccnc2)CC12CCCCC2 (stereo not drawn)	895 s
Cc1ccc(C(O)Cn2ccn3nc(-c4cccs4)cc3c2=O)cc1 (stereo not drawn)	893 s
O=C(CC(=O)Nc1ccc2nc3n(c(=O)c2c1)CCCCC3)Nc1ccc(F)cc1	705 s
O=C1[C@H]2CN(Cc3cc(Cl)ccc3F)C[C@H]2C(=O)N1CCN1CCc2ccccc2C1	684 s
CN(C1CCc2nn(CC3CC3)c(=O)n2CC1)S(=O)(=O)c1cccc(F)c1 (stereo not drawn)	777 s
Cc1oc(C2CCN(C(=O)Nc3ccc4c(c3)CCC4)CC2)nc1C(=O)N(C)C	766 s
Cc1cc(C(=O)N2CCCCCC2)nc2cc(-c3cccs3)nn12	977 s
CC(C)NC(=O)c1ccc(OCC2CCCN(C(=O)c3ccc(F)cc3)C2)cc1 (stereo not drawn)	844 s
O=C(CSc1cc(NCc2ccccc2Cl)ncn1)NC1CCCC1	794 s
CC1CN(Cc2nc3c(c(=O)n(C)c(=O)n3C)n2CC(=O)c2ccccc2)CC(C)O1 (stereo not drawn)	624 s
COc1ccc(CNC(=O)C2CCCN(c3ncnc4c3oc3ccccc34)C2)c(OC)c1 (stereo not drawn)	754 s
CC1=C(c2ccc(C)cc2)S(=O)(=O)N=C1N1CCCN(C(=O)C2CC2)CC1	581 s
COc1cccc(N2CCN(c3ccnc(SCC(=O)Nc4ccccc4F)n3)CC2)c1	789 s
O=C(Cn1c(=O)n(Cc2cccnc2)c(=O)c2ncccc21)c1ccc2c(c1)OCCO2	554 s
Cc1ccc(CNC(=O)C2(C)CCCN(C(=O)Nc3cc(C)cc(C)c3)C2)cc1 (stereo not drawn)	912 s

Compound	RP-LC retention time
Cc1noc(-c2cccn2C)n1	744 s
CCc1ccccc1NC(=O)C1(C)Oc2cccnc2N(C(C)C)C1=O (stereo not drawn)	1010 s
O=C(CC1=C2CCCCC2NC1=O)Nc1ccccc1F (stereo not drawn)	693 s
Fc1ccccc1-c1noc(-c2ncn3c2COC(c2ccccc2Cl)C3)n1 (stereo not drawn)	1080 s
CCn1cc(C(=O)NCc2ccc(F)cc2)c(S(=O)(=O)N2CCSCC2)n1	915 s
CSc1ncccc1C(=O)Nc1ccc(CC(=O)NC(C)(C)CO)cc1	633 s
CCCCN1C(=O)C(CC(=O)NCC(C)C)Sc2ncccc21 (stereo not drawn)	784 s
COc1ccc(NC(=O)C2CCN(c3cc(N4CCCC4)ncn3)CC2)cc1Cl	677 s
Cc1noc(C)c1S(=O)(=O)N1CCC2(CC1)CC(Cc1ccc(F)cc1)CCO2 (stereo not drawn)	1150 s
O=C(NCc1ccco1)c1ccc2c(c1)nc1n2CCCCC1	596 s
COCCN1C(=O)CCc2cc(NS(=O)(=O)c3ccc(Cl)s3)ccc21	793 s
CC1=C(C(=O)OCCc2ccccc2)C(c2ccc(F)cc2)NC(=O)N1 (stereo not drawn)	862 s
Cc1nc2nc(-c3ccc(Cl)cc3)nn2c(C)c1CC(=O)NC(C)C	790 s
O=c1c2ccccc2oc2nc(-c3ccco3)n(Cc3ccccc3)c(=O)c12	797 s
COc1ccc(CN2CCc3nc(N4CCN(c5ncccn5)CC4)ncc3C2)cc1OC	626 s
Cc1ccc(Nc2cc(C)nc(N3CCN(C(=O)Nc4ccc(Cl)cc4)CC3)n2)cc1	908 s
CN1CCN(c2ccc(NC(=O)C(C)(C)C)c(C(=O)O)c2)CC1	601 s
COc1ccc(-c2cc(C(F)(F)F)n3nc(C(=O)O)cc3n2)cc1	851 s
Cc1cc(N2CCN(C(=O)c3cc4ccccc4o3)CC2)ncn1	559 s
O=C(Nc1ccccc1)c1nnc(CCC(=O)N2CCN(c3ccccn3)CC2)s1	617 s
Cc1nc(C2(C)CCN(S(=O)(=O)c3ccc(C(C)C)cc3)CC2)no1	1050 s
CC(C)CC(=O)NCCC1CCN(C(=O)Nc2cc(F)ccc2F)CC1	1190 s

Compound	RP-LC retention time
CCOc1ccccc1CN1CCc2nc(N3CCN(CC)CC3)ncc2C1	1120 s
Clc1ccc(Cl)c(-c2ccc(CNCc3ccncc3)o2)c1	664 s
O=C(Cn1cnc2nc(N3CCCC(C(=O)NC4CC4)C3)sc2c1=O)NCc1cccs1 (stereo not drawn)	644 s
COc1ccc(-c2coc3cc(OC(=O)c4ccc5c(c4)OCO5)ccc3c2=O)cc1OC	981 s
COc1ccc(OC)c(S(=O)(=O)N2CCc3nc(-c4ccccc4)ncc3C2)c1	998 s
COc1ccc(NC(=O)CN2c3ccc(F)cc3-c3ccccc3S2(=O)=O)c(OC)c1	975 s
CC1(C)Cc2cccc(OCC(=O)NCCc3ccc(S(N)(=O)=O)cc3)c2O1	694 s
COC(=O)c1ccc(N2C=C(C#N)S(=O)(=O)c3ccc(F)cc32)cc1	875 s
CCc1nnc([C@@H]2CC(F)(F)CN2C(=O)c2cc(C)no2)o1	686 s
Cc1ccc(CNC(=O)C2(C)CN(S(C)(=O)=O)CC(=O)N2c2cccc(Cl)c2C)cc1 (stereo not drawn)	893 s
COc1ccc(C(=O)Nc2nc3c(s2)Cc2c(Br)ccc(OC)c2-3)cc1OC	1100 s
COc1ccc(-c2cc3n(n2)CCCN(C(=O)C2CCCO2)C3)cc1 (stereo not drawn)	700 s
O=C(NCC1CCOCC1)Nc1ccc(Cl)cc1C(F)(F)F	846 s
CCN1CCN(c2cc(C)c3cc(NC(=O)CC4CCCCC4)ccc3n2)CC1	594 s
CCC(=O)Nc1c(C)noc1/C=C\c1ccc(S(=O)(=O)N2CCCCC2C)cc1 (stereo not drawn)	915 s
CC(C)c1ccc(NC(=O)CN2C(=O)C(C(=O)N3CCCC3)Sc3ccccc32)cc1 (stereo not drawn)	1140 s
CCC(C)Nc1nc(NC)nc(-n2cnc(SC)n2)n1 (stereo not drawn)	790 s
Cn1cc(-c2cc3n(n2)CCC(=O)N3CC(=O)NCCC2=CCCCC2)c2ccccc21	891 s
O=S(=O)(c1ccc(-c2noc(-c3ccc(F)c(F)c3)n2)cc1)N1CCCC1	1210 s
O=C(c1cccnn1)N1C[C@@H](COCC2CC2)[C@H](c2ccncc2)C1	563 s
CCc1nc(-c2csc(S(=O)(=O)N3CCCC(C(=O)N4CCc5ccccc5C4)C3)c2)no1 (stereo not drawn)	1060 s
Cc1csc(C(=O)Nc2cccc3ccc(-n4ccnc4)nc23)c1	641 s

Compound	RP-LC retention time
COc1ccc(N2CC(c3nc(-c4ccccc4)no3)CC2=O)cc1Cl (stereo not drawn)	973 s
CCn1cc(-c2nc(CC(=O)NCc3ccc4c(c3)OCO4)cs2)c2cccnc21	835 s
COc1ccc(-c2nc(Cn3cnc4ccccc4c3=O)no2)cc1OC	765 s
Cc1cc(C(F)(F)F)nn1CC(=O)N1CCC(c2noc(-c3ccccn3)n2)C1 (stereo not drawn)	769 s
COc1cc(-c2noc(C3CC(=O)N(c4ccc(C)c(F)c4)C3)n2)cc(OC)c1OC (stereo not drawn)	976 s
CC(C)c1csc(-c2csc(S(=O)(=O)NCc3ccc(Br)cc3)c2)n1	1190 s
Cc1cc(C)c2c(n1)nn1c(N3CCN(c4ccccn4)CC3)cc(C)nc21	561 s
CCc1ccccc1S(=O)(=O)NCC(c1cccnc1)c1cn(C)c2ccccc12 (stereo not drawn)	787 s
CCCCN1C(=O)C(CC(=O)NC(C)C)Sc2ncccc21 (stereo not drawn)	742 s
CC(C)c1ccc(CNC(=O)CN2CCc3ccccc3C2C(=O)N2CCCC2)cc1 (stereo not drawn)	908 s
CCn1c(=O)sc2cc(S(=O)(=O)N3CCC(C(=O)N(C)c4ccc(C)cc4)CC3)ccc21	953 s
CCOc1ccc(-n2nnc(C(=O)Nc3cccc(Cl)c3C)c2C)cc1	1120 s
Cc1occc1C(=O)N1CC(F)(F)C[C@H]1c1nc(C2CC2)no1	726 s
O=C(Cc1cccc(F)c1)N1CCC(n2cnnc2-c2ccccc2)C1 (stereo not drawn)	686 s
CCN1CCCn2cc(S(=O)(=O)N3CCN(c4cccc(Cl)c4)CC3)cc2C1=O	894 s
COc1ccc(C2(C(=O)N3CCC(Oc4ccc(-c5noc(C)n5)cc4)C3)CC2)cc1 (stereo not drawn)	913 s
CCC(=O)N1CCc2cc(N3CC(C(=O)Nc4ccccc4OC)CC3=O)ccc21 (stereo not drawn)	758 s
Cc1cc(C)cc(Nc2nc(C)cc(=O)n2CC(=O)Nc2ccc3c(c2)OCCO3)c1	785 s
Cc1ccc(Cl)cc1NC(=O)N1CCC(c2cc(N)on2)CC1	736 s
O=C(Nc1ccc(Br)cc1F)C1CCCN(S(=O)(=O)Cc2ccc(F)cc2)C1 (stereo not drawn)	1040 s
O=C(NC1CC1)c1nc2ccccn2c1-c1ccc(Cl)cc1	802 s
COC(=O)c1ccc(NC(=O)C2CCCN(c3ncnc4c3nc3n4CCCCC3)C2)cc1 (stereo not drawn)	808 s
